Measurements: PubChem BioAssay (NCI)
Where “and” joins values, the source holds several entries; their conditions need not be identical. Equal values may be shown once.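 Exposure lasted 48 hours, with cells grown in 96-well plates and compounds tested at five concentrations. At the GI50, growth is halved. Definition used: TGI = concentration required for complete inhibition of growth.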

Columns and labels:
Assay in all cases: NCI-60 cell line screen, 48 h
IGROV1 ovarian = system: IGROV1 ovarian
SR leukemia = system: SR leukemia
SF-268 CNS = system: SF-268 CNS
OVCAR-5 ovarian = system: OVCAR-5 ovarian
MALME-3M melanoma = system: MALME-3M melanoma
OVCAR-4 ovarian = system: OVCAR-4 ovarian
OVCAR-3 ovarian = system: OVCAR-3 ovarian
HT29 colon = system: HT29 colon
KM12 colon = system: KM12 colon
NCI-H460 lung = system: NCI-H460 lung

SMILES	TGI (IGROV1 ovarian)	TGI (SR leukemia) [µM]	TGI (SF-268 CNS)	TGI (OVCAR-5 ovarian) [µM]	TGI (MALME-3M melanoma)	TGI (OVCAR-4 ovarian) [µM]	TGI (OVCAR-3 ovarian)	TGI (HT29 colon)	GI50 (IGROV1 ovarian) [µM]	GI50 (KM12 colon) [µM]	TGI (KM12 colon)	GI50 (SR leukemia) [µM]	GI50 (SF-268 CNS) [µM]	GI50 (OVCAR-5 ovarian)	GI50 (OVCAR-4 ovarian) [µM]	GI50 (NCI-H460 lung) [µM]	TGI (NCI-H460 lung)	GI50 (HT29 colon) [µM]	GI50 (MALME-3M melanoma) [µM]	GI50 (OVCAR-3 ovarian) [µM]
O=[N+]([O-])c1c(/C=N/Nc2ccccc2)oc(-c2ccc3c(c2)OCO3)c1-c1ccc2c(c1)OCO2	> 100 µM	29.8	> 100 µM	> 100	> 100 µM	> 100	98.2 µM	> 100 µM	–	–	–	–	–	–	–	–	–	–	–	–
O=C(Oc1ccc(O)c2c(=O)n3c(cc12)[nH]c1ccccc13)c1ccccc1	24.6 µM	82.2	> 100 µM	73.2	–	> 100	–	> 100 µM	10.6	34.7	> 100 µM	25.9	61	28.4 µM	49	81.7	> 100 µM	33.5	–	–
O=c1cc(-c2ccccc2)[nH]c2cc(Cl)cc(Cl)c12	> 100 µM	> 100	> 100 µM	> 100	> 100 µM	68.6	–	> 100 µM	–	–	> 100 µM	–	–	–	–	–	> 100 µM	–	–	–
NC(N)=N/N=C(/c1nc2ccc([N+](=O)[O-])cc2[nH]c1=O)C(O)c1ccco1 (stereo not drawn)	> 100 µM	> 100	> 100 µM	> 100	> 100 µM	> 100	–	> 100 µM	–	–	> 100 µM	–	–	–	–	–	> 100 µM	–	–	–
COC(=O)c1c(-c2ccccc2)cc2c3cc(-c4ccccc4)c(C(=O)OC)n3c3ccccc3n12	> 100 µM	–	> 100 µM	> 100	> 100 µM	> 31.6	> 100 µM	> 100 µM	–	–	> 100 µM	–	–	–	–	–	> 100 µM	–	–	–
CCOC(=O)CCC(=O)C1c2cccc(O)c2C(=O)c2c(O)cccc21	4.72 µM	7.29	–	3.38	3.42 µM	1.86	2.26 µM	6.24 µM	–	–	2.2 µM	–	–	–	–	–	1.4 µM	–	–	–
N#CCCc1nc2ccc(Br)cc2c(=O)n1CCO	> 100 µM	–	> 100 µM	–	> 100 µM	> 100	> 100 µM	–	–	–	> 100 µM	–	–	–	–	–	–	–	–	–
O=c1cc(-c2ccccc2)[nH]c2cccc(S)c12	> 100 µM	> 100	> 100 µM	> 100	> 100 µM	> 100	> 100 µM	–	–	–	> 100 µM	–	–	–	–	–	> 100 µM	–	–	–
CCCC(=O)c1c(NOC2OC(COC(C)=O)C(OC(C)=O)C(OC(C)=O)C2OC(C)=O)nc(OC)n(C)c1=O (stereo not drawn)	> 100 µM	> 100	> 100 µM	> 100	–	> 100	–	> 100 µM	–	–	> 100 µM	–	–	–	–	–	> 100 µM	–	–	–
O=C1C(Br)=C[C@H]2C3C=CC(Br)(C3=O)[C@@H]12 (stereo partly drawn)	29.4 µM	–	43.6 µM	29	26.2 µM	29.4	27.1 µM	23.8 µM	–	–	24.4 µM	–	–	–	–	–	–	–	–	–
c1cnc2c(c1)-n1cccc1C1(CCSCC1)NN2	–	> 100	> 100 µM	> 100	> 100 µM	> 100	> 100 µM	> 100 µM	–	–	> 100 µM	–	–	–	–	–	> 100 µM	–	–	–
O=C(C(O)c1cn(Cc2ccccc2)c2ccccc12)N1CCCCC1 (stereo not drawn)	> 100 µM	> 100	> 100 µM	> 100	> 100 µM	–	> 100 µM	> 100 µM	–	–	> 100 µM	–	–	–	–	–	–	–	–	–
CC(=O)CC1CCC(=O)CCC(=O)OC(CC(C)=O)CCC(=O)CCC(=O)O1 (stereo not drawn)	> 100 µM	–	> 100 µM	> 100	> 100 µM	> 100	> 100 µM	> 100 µM	–	–	> 100 µM	–	–	–	–	–	> 100 µM	–	–	–
Cc1cc2nc3c(=O)n(C)c(=O)nc-3n(-c3ccc(Cl)cc3)c2cc1C	38.8 µM	–	36.7 µM	32.6	22.3 µM	19.8	8.81 µM	16.1 µM	–	–	> 100 µM	–	–	–	–	–	10.6 µM	–	–	–
COc1cc(OC2OC(C)C(O)C(O)C2O)cc2oc(-c3ccc(O)cc3)c(CC=C(C)C)c(=O)c12 (stereo not drawn)	51.9 µM	22.5	32.5 µM	69.2	55.5 µM	18.9	66.3 µM	–	12.9	12.2	31 µM	4.08	15.4	31.4 µM	2.06	14.7	38.7 µM	–	15.5	17.1
COc1cc(C2c3cc4c(cc3[C@@H](Nc3ccc(C(=O)O)cc3)C3COC(=O)[C@H]23)OCO4)cc(OC)c1O (stereo partly drawn)	68.6 µM and > 17.5 µM	–	69.1 µM and > 17.5 µM	> 100	47.9 µM and > 17.5 µM	> 100	66.9 µM and > 17.5 µM	64.8 µM and > 17.5 µM	–	–	68.5 µM and > 17.5 µM	–	–	48.3 µM and > 17.5 µM	–	–	17.6 µM and > 17.5 µM	–	–	–
CCCCCCNC(=O)C1=C(C)NC(C)=C(C(=O)NCCCCCC)C1	> 100 µM	> 100	> 100 µM	> 100	–	> 100	> 100 µM	> 100 µM	–	–	> 100 µM	–	–	–	–	–	> 100 µM	–	–	–
Oc1ccc(N=Nc2ccc(Cl)cc2)cc1	29.3 µM	54.8	34.5 µM	32.2	–	61	55 µM	32.2 µM	–	–	28.2 µM	–	–	–	–	–	34.2 µM	–	–	–
CC(C)c1ccc(Cc2cnc(NC(=O)c3cc(Br)cs3)s2)cc1	> 100 µM	–	> 100 µM	> 100	> 100 µM	> 100	> 100 µM	> 100 µM	3.7	2.12	> 100 µM	–	5.89	4.95 µM	4.65	3.3	> 100 µM	4.5	3.44	2.75
CCOc1ccccc1NC(=O)/C=C1\NC(=O)CS1	> 100 µM	–	> 100 µM	> 100	> 100 µM	> 100	> 100 µM	> 100 µM	–	–	> 100 µM	–	–	–	–	–	> 100 µM	–	–	–
S=C(Nc1ccc(-c2nc3ccccc3[nH]2)cc1)NC1CCCCC1	–	52.5	–	–	51.9 µM	–	43.8 µM	> 100 µM	35.2	22.5	63.6 µM	10.9	33.1	42.4 µM	–	–	–	34.4	–	–
COC1=CC23C=CC1[C@@H](c1ccccc1)C2=C(C)C(=O)N3C(=O)NC1CCCCC1 (stereo partly drawn)	> 100 µM	56.8	33.6 µM	68.2	–	–	59.8 µM	41.1 µM	–	–	> 100 µM	–	–	–	–	–	42.2 µM	–	–	–
